Measurements reported in patent US5200397A, “Use of peptide analogs of thrombospondin for the inhibition of angiogenic activity” (W. R. Grace & Co.-Conn., priority 1991, dated 1993).
Residues, ends and D or L forms follow the SMILES beside them. No end group written: not given here.

Columns and labels:
[1] = tested on: chicken chorioallantoic membrane (CAM); assay: CAM assay (antiangiogenesis, Avascular Index); type: in vivo; settings: any dosage
Protocol: Assays for antiangiogenic properties on the chicken chorioallantoic membrane (CAM) were performed using the "egg culture" technique (Auerbach, Dev. Biol. (1974) 41:391 and Crum, Science (1985) 230:1375). The fertilized White Leghorn egg (Truslow Farms, Chestertown, Md.) used in this method was removed from the shell on day 3 (after fertilization) and placed in a culture dish. The "cultured egg" was maintained through day 6 at 37° C. in an atmosphere of 2% CO2 and a relative humidity of 70%. After day 6 incubation was carried out without supplemental CO2.
Test materials were implanted on the CAM using low gelling temperature agarose pellets (Castellot, J. Cell Physiol. (1986) 127:323). This assay was performed twice. In the first assay, the test materials included pellets containing 90, 9, and 0.9 μg of peptide p1 (SEQ ID No. 1) diluted in water. […]
Antiangiogenesis was examined in an assay for inhibition of embryonic angiogenesis as described by Fenselau in "Growth and Maturation Factors" (1984) 2:175. After 1 or 2 days the samples were evaluated for their antiangiogenic effects on the CAM. […]
Inhibition of embryonic angiogenesis was also quantitated by measuring the size of the affected zone surrounding the pellet as well as the portion of the pellet that borders the affected region. […]

[2] = tested on: Mouse B16 F10 melanoma cells; assay: Direct adhesion assay (melanoma cells to adsorbed ligand); type: cell-based; settings: for Adhesion as % Thrombospondin: absorbed compound 2 μg, B16 F10 melanoma cells
Protocol: It is believed that thrombospondin acts in metastasis through its adhesive properties. […] In this assay, wells of a 96-well microtiter dish (Costar, 10 Cambridge, Massachusetts) were incubated for two to three hours with 50 μl of a 40 μg/ml solution of various ligands in 20 mM NaCl, pH 7.3. Thrombospondin (purified by the method of Tuszynski et al., J. Biol. Chem. (1985) 260:12240-5), fibronectin (Sigma Chemical Co., Missouri) served as the positive control. Bovine serum albumin (BSA) (Sigma Chemical Co.) served as the negative control. […] Following peptide adhesion to the microtiter dish, the wells were aspirated, treated with 200 μl phosphate buffered saline (PBS) containing 1% BSA for 1 hour and then washed three more times with 200 μl PBS.
Mouse B16 F10 melanoma cells were grown and harvested during log phase of growth using standard procedures. The harvested cells were washed two times in serum-free Dulbecco's minimum essential medium (DMEM) (Flow Laboratories) and suspended in DMEM at a final concentration of 4×10^5 cells/ml. Of the cell suspension 100 μl was added to each well of the microtiter dish containing the various ligands and the dish incubated at 37° C. in a CO2 incubator for 1 hour. Nonadherent cells were removed by aspiration and the wells washed three times with 200 μl of PBS. The total cell-associated protein was determined by dissolving the attached cells directly in the microtiter wells with 200 μl of the Pierce BCA working solution (Pierce Chem. Co. Booklet No. 23225 (1987)). The plate was covered with an adhesive mylar sheet (Flow Labs) and incubated at 60° C. for 30 minutes. Plates were allowed to cool to room temperature, cover sheets were removed, and the absorbance of each well was determined at 562 nm with a microtiter plate reader (Biotek, Burlington, Vt.)

platelets = assay: Direct platelet adhesion assay; type: cell-based; settings: for Adherence as % Control: wells treated with 50 μl of 40 μg/ml solution, platelets
Protocol: The number of adherent platelets was essentially determined as previously described (Tuszynski et al., Anal. Bio. supra). Briefly, 100 μl of 5×10^8 platelets/ml washed as previously described (Tuszynski, et al., Blood 72, 109-225, 1988) were added to microtiter plates, the wells of which were treated with 50 μl of a 40 μg/m] peptide or protein solution (Hepes buffered saline, pH 7.4). Solutions were dried at room temperature after incubation in a fume hood for two hours. Wells were blocked for one hour with 1% BSA. Platelets (100 μl) were incubated in the wells for 30 minutes and non-adherent platelets were removed by aspiration. Wells were washed 3X with 200 μl of Hepes buffered saline, pH 7.4. The number of adherent platelets was determined by measuring the platelet-derived protein using the BCA protein assay.

fibronectin (FN) = assay: Competitive platelet adhesion assay, absorbed fibronectin; type: cell-based; settings: 250 μg/ml; absorbed protein FN; platelets
Protocol: The direct adhesion assay of Example 7 was modified to measure the ability of the peptide compounds of the invention to compete with intact thrombospindin or fibronectin for adhesion of platelets.
In this assay, thrombospondin (TSP) or fibronectin (FN) was absorbed onto microtiter dish as described in Example 7. The assay was similar to Example 7 except that before platelets were added to the microtiter dishes they were preincubated with 250 μg/ml of various ligands.

intact thrombospondin = assay: Competitive assay, thrombospondin specific adhesion to melanoma cells; type: cell-based; settings: for % of buffer control: melanoma cell adhesion to absorbed thrombospondin
Protocol: The direct adhesion assay of Example 5 was modified to measure the ability of the peptide compounds of the invention to compete with intact thrombospondin for adhesion to melanoma cells.
In this assay, intact thrombospondin is absorbed onto microtiter dishes as described in Example 5. The assay is similar to Example 5 except that before the melanoma cells are added to the microtiter dishes they are preincubated for 15 minutes with 100 μg/ml of various ligands.

[3] = tested on: Platelet-rich-plasma (PRP); assay: Platelet aggregation assay (ADP, platelet-rich plasma); type: cell-based; settings: 1 μM ADP
Protocol: Platelet aggregation was monitored on a single-channel aggregometer equipped to measure luminescence (Chromo-Log, Havertown, Pa.). Platelet-rich-plasma (PRP) was obtained from whole blood anti-coagulated with 0.38% Sodium Citrate by centrifugation at 150 X g for 20 minutes. Peptides were added to 0.5 ml of PRP and aggregation initiated with 1 μM ADP. Buffer blanks contained diluent (water) but no peptide.

[4] = tested on: B16 F10 mouse melanoma cells; assay: Antimetastatic activity in vivo (lung tumors); set-up: species or system C57 black mice; settings: for % buffer control (number of lung tumors): intravenous with cells, 16 days
Text: After 16 days, the mice were sacrificed and the number of lung tumors counted.

collagenase = assay: Collagenase inhibition assay (Johnson-Wint radiometric); type: biochemical; settings: 2 μg dose
Protocol: Collagenase inhibitory activity was determined as described by Johnson-Wint (Anal. Biochem. (1980) 104:175). Peptides p1 (SEQ ID No. 1) and p27 (SEQ ID NO. 19) were tested in the Johnson-Witt radiometric enzyme assay for collagenase activity at doses of 50 ng, 100 ng, 250 ng, 500 ng, 1 μg and 2μg. Peptide p27 was inhibitory (-21%) at the 2μg dose.

Question: How did the “toxicity to embryo (abnormal development, embryo death)” value [1] turn out when `CC(C)[C@H](NC(=O)[C@H](CO)NC(=O)[C@H](CS)NC(=O)[C@@H]1CCCN1C(=O)[C@H](CO)NC(=O)[C@@H](N)Cc1c[nH]c2ccccc12)C(=O)N[C@H](C(=O)N[C@@H](CS)C(=O)NCC(=O)O)[C@@H](C)O` [p1] (H-WSPCSVTCG-OH) was run?
Answer: not toxic

Question: What does the source list for “Bovine serum albumin [BSA, reference compound]”?
Answer: Adhesion as % Thrombospondin [2]: 13%; Adherence as % Control (platelets): 0.7%

Question: For Thrombospondin [reference compound], which “Adhesion as % Thrombospondin” value [2] is on record?
Answer: 100%

Question: And the “Adherence as % Control” value (platelets)?
Answer: 100%

Question: How did the “Adhesion as % Thrombospondin” value [2] turn out when “WSPCSVTCG-NH2 (cysteine pairing not given here) [p6]” was run?
Answer: 70%

Question: And the “adhesive properties (in words)” value ([2]; melanoma cell adhesion, Table 1)?
Answer: display adhesive properties

Question: And the “adherence to platelets (in words)” value (platelets)?
Answer: adhere to platelets

Question: And the “Adherence as % Control” value (platelets)?
Answer: 38%

Question: And the “% Buffer Control” value (fibronectin (FN))?
Answer: 96%

Question: What about the “competition with thrombospondin for adhesion of melanoma cells (in words)” value (intact thrombospondin) of the same compound?
Answer: compete to a lesser degree

Question: What about the “% of buffer control” value (intact thrombospondin; 100 μg/ml) of the same compound?
Answer: 89%

Question: And the “% of buffer control” value (intact thrombospondin; 200 μg/ml)?
Answer: 74%

Question: What about the “% of buffer control” value (intact thrombospondin; 300 μg/ml) of the same compound?
Answer: 74%

Question: What about the “inhibition of platelet aggregation (in words, FIG. 1)” value [3] of the same compound?
Answer: inhibit platelet aggregation

Question: And the “% buffer control (number of lung tumors)” value ([4]; 30 μg/mouse)?
Answer: 91%

Question: What about the “% buffer control (number of lung tumors)” value ([4]; 100 μg/mouse) of the same compound?
Answer: 102%

Question: And the “% buffer control (number of lung tumors)” value ([4]; 300 μg/mouse)?
Answer: 50%

Question: And the “number of lung tumors versus controls (in words)” value ([4]; mouse, in vivo)?
Answer: statistically fewer tumors than controls

Question: And the “size of lung tumors (in words)” value ([4]; mouse, in vivo)?
Answer: smaller in size

Question: With fibronectin as the compound, how does the “Adherence as % Control” value (platelets) read?
Answer: 83%

Question: Which “collagenase activity, inhibition” value (collagenase) does the source give for “p27: Peptide p27 (SEQ ID NO. 19) tested in the collagenase assay; sequence not printed (WTSCSTSCG)” here?
Answer: -21%
